Test results from ChEMBL document CHEMBL5370556, “Optimization, and biological evaluation of 3-O-β-chacotriosyl betulinic acid amide derivatives as novel small-molecule Omicron” (Eur J Med Chem, 2023).

How the values were obtained:
[1] = Cytotoxicity against human 293T/ACE2 cells assessed as reduction in cell growth measured after 48 hrs by MTT assay; format: functional
[2] = Selectivity index, ratio of CC50 for human 293T/ACE2 cells to EC50 for SARS-CoV-2 Omicron; format: toxicity; settings: read-out: Ratio CC50/EC50
SARS-CoV-2 = experiment: Antiviral activity against luciferase-expressing pseudovirus encoding SARS-CoV-2 Omicron expressing S protein infected in human 293T/ACE2 cells assessed as reduction of viral growth measured after 48 hrs by luciferase assay; format: functional, organism-based; settings: Severe acute respiratory syndrome coronavirus 2, 293T/ACE2, 48 h

SMILES | CC50 [1] [µM] | selectivity ratio [2] | EC50 (SARS-CoV-2) [µM]
C=C(C)[C@@H]1CC[C@]2(C(=O)NCc3cccs3)CC[C@]3(C)[C@H](CC[C@@H]4[C@@]5(C)CC[C@H](O[C@@H]6O[C@H](CO)[C@@H](O[C@@H]7O[C@@H](C)[C@H](O)[C@@H](O)[C@H]7O)[C@H](O)[C@H]6O[C@@H]6O[C@@H](C)[C@H](O)[C@@H](O)[C@H]6O)C(C)(C)[C@@H]5CC[C@]43C)[C@@H]12 | 41.9 | 6.81 | 6.15
C=C(C)[C@@H]1CC[C@]2(C(=O)Nc3ccccc3Cl)CC[C@]3(C)[C@H](CC[C@@H]4[C@@]5(C)CC[C@H](O[C@@H]6O[C@H](CO)[C@@H](O[C@@H]7O[C@@H](C)[C@H](O)[C@@H](O)[C@H]7O)[C@H](O)[C@H]6O[C@@H]6O[C@@H](C)[C@H](O)[C@@H](O)[C@H]6O)C(C)(C)[C@@H]5CC[C@]43C)[C@@H]12 | 47.1 | 8.7 | 5.41
O=C(/C=C/c1ccc(O)c2oc(-c3ccc(O)c(O)c3)cc12)O[C@H](Cc1ccc(O)c(O)c1)C(=O)O | > 100 | > 17.8 | 5.63
C=C(C)[C@@H]1CC[C@]2(C(=O)Nc3ccc(-c4ccccc4)cc3)CC[C@]3(C)[C@H](CC[C@@H]4[C@@]5(C)CC[C@H](O[C@@H]6O[C@H](CO)[C@@H](O[C@@H]7O[C@@H](C)[C@H](O)[C@@H](O)[C@H]7O)[C@H](O)[C@H]6O[C@@H]6O[C@@H](C)[C@H](O)[C@@H](O)[C@H]6O)C(C)(C)[C@@H]5CC[C@]43C)[C@@H]12 | 100 | 11.9 | 8.46
C=C(C)[C@@H]1CC[C@]2(C(=O)Nc3ccc4sccc4c3)CC[C@]3(C)[C@H](CC[C@@H]4[C@@]5(C)CC[C@H](O[C@@H]6O[C@H](CO)[C@@H](O[C@@H]7O[C@@H](C)[C@H](O)[C@@H](O)[C@H]7O)[C@H](O)[C@H]6O[C@@H]6O[C@@H](C)[C@H](O)[C@@H](O)[C@H]6O)C(C)(C)[C@@H]5CC[C@]43C)[C@@H]12 | – | – | > 20
C=C(C)[C@@H]1CC[C@]2(C(=O)NCc3ccccc3OC)CC[C@]3(C)[C@H](CC[C@@H]4[C@@]5(C)CC[C@H](O[C@@H]6O[C@H](CO)[C@@H](O[C@@H]7O[C@@H](C)[C@H](O)[C@@H](O)[C@H]7O)[C@H](O)[C@H]6O[C@@H]6O[C@@H](C)[C@H](O)[C@@H](O)[C@H]6O)C(C)(C)[C@@H]5CC[C@]43C)[C@@H]12 | – | – | > 20
C=C(C)[C@@H]1CC[C@]2(C(=O)NCc3cccc(Cl)c3)CC[C@]3(C)[C@H](CC[C@@H]4[C@@]5(C)CC[C@H](O[C@@H]6O[C@H](CO)[C@@H](O[C@@H]7O[C@@H](C)[C@H](O)[C@@H](O)[C@H]7O)[C@H](O)[C@H]6O[C@@H]6O[C@@H](C)[C@H](O)[C@@H](O)[C@H]6O)C(C)(C)[C@@H]5CC[C@]43C)[C@@H]12 | – | – | > 20
C=C(C)[C@@H]1CC[C@]2(C(=O)NCC3CCCCC3)CC[C@]3(C)[C@H](CC[C@@H]4[C@@]5(C)CC[C@H](O[C@@H]6O[C@H](CO)[C@@H](O[C@@H]7O[C@@H](C)[C@H](O)[C@@H](O)[C@H]7O)[C@H](O)[C@H]6O[C@@H]6O[C@@H](C)[C@H](O)[C@@H](O)[C@H]6O)C(C)(C)[C@@H]5CC[C@]43C)[C@@H]12 | – | – | > 20
C=C(C)[C@@H]1CC[C@]2(C(=O)NNc3ccccc3)CC[C@]3(C)[C@H](CC[C@@H]4[C@@]5(C)CC[C@H](O[C@@H]6O[C@H](CO)[C@@H](O[C@@H]7O[C@@H](C)[C@H](O)[C@@H](O)[C@H]7O)[C@H](O)[C@H]6O[C@@H]6O[C@@H](C)[C@H](O)[C@@H](O)[C@H]6O)C(C)(C)[C@@H]5CC[C@]43C)[C@@H]12 | – | – | > 20
C=C(C)[C@@H]1CC[C@]2(C(=O)Nc3ccc4c(cnn4C)c3)CC[C@]3(C)[C@H](CC[C@@H]4[C@@]5(C)CC[C@H](O[C@@H]6O[C@H](CO)[C@@H](O[C@@H]7O[C@@H](C)[C@H](O)[C@@H](O)[C@H]7O)[C@H](O)[C@H]6O[C@@H]6O[C@@H](C)[C@H](O)[C@@H](O)[C@H]6O)C(C)(C)[C@@H]5CC[C@]43C)[C@@H]12 | – | – | > 20
C=C(C)[C@@H]1CC[C@]2(C(=O)NCc3cccc(OC)c3)CC[C@]3(C)[C@H](CC[C@@H]4[C@@]5(C)CC[C@H](O[C@@H]6O[C@H](CO)[C@@H](O[C@@H]7O[C@@H](C)[C@H](O)[C@@H](O)[C@H]7O)[C@H](O)[C@H]6O[C@@H]6O[C@@H](C)[C@H](O)[C@@H](O)[C@H]6O)C(C)(C)[C@@H]5CC[C@]43C)[C@@H]12 | – | – | > 20
C=C(C)[C@@H]1CC[C@]2(C(=O)NCc3ccc(OC)cc3)CC[C@]3(C)[C@H](CC[C@@H]4[C@@]5(C)CC[C@H](O[C@@H]6O[C@H](CO)[C@@H](O[C@@H]7O[C@@H](C)[C@H](O)[C@@H](O)[C@H]7O)[C@H](O)[C@H]6O[C@@H]6O[C@@H](C)[C@H](O)[C@@H](O)[C@H]6O)C(C)(C)[C@@H]5CC[C@]43C)[C@@H]12 | – | – | > 20
C=C(C)[C@@H]1CC[C@]2(C(=O)NCc3ccc(Cl)cc3)CC[C@]3(C)[C@H](CC[C@@H]4[C@@]5(C)CC[C@H](O[C@@H]6O[C@H](CO)[C@@H](O[C@@H]7O[C@@H](C)[C@H](O)[C@@H](O)[C@H]7O)[C@H](O)[C@H]6O[C@@H]6O[C@@H](C)[C@H](O)[C@@H](O)[C@H]6O)C(C)(C)[C@@H]5CC[C@]43C)[C@@H]12 | – | – | > 20
C=C(C)[C@@H]1CC[C@]2(C(=O)NCc3ccc(-c4ccccc4)cc3)CC[C@]3(C)[C@H](CC[C@@H]4[C@@]5(C)CC[C@H](O[C@@H]6O[C@H](CO)[C@@H](O[C@@H]7O[C@@H](C)[C@H](O)[C@@H](O)[C@H]7O)[C@H](O)[C@H]6O[C@@H]6O[C@@H](C)[C@H](O)[C@@H](O)[C@H]6O)C(C)(C)[C@@H]5CC[C@]43C)[C@@H]12 | – | – | > 20
C=C(C)[C@@H]1CC[C@]2(C(=O)NCc3ccccc3Cl)CC[C@]3(C)[C@H](CC[C@@H]4[C@@]5(C)CC[C@H](O[C@@H]6O[C@H](CO)[C@@H](O[C@@H]7O[C@@H](C)[C@H](O)[C@@H](O)[C@H]7O)[C@H](O)[C@H]6O[C@@H]6O[C@@H](C)[C@H](O)[C@@H](O)[C@H]6O)C(C)(C)[C@@H]5CC[C@]43C)[C@@H]12 | – | – | > 20
C=C(C)[C@@H]1CC[C@]2(C(=O)NNCc3ccccc3)CC[C@]3(C)[C@H](CC[C@@H]4[C@@]5(C)CC[C@H](O[C@@H]6O[C@H](CO)[C@@H](O[C@@H]7O[C@@H](C)[C@H](O)[C@@H](O)[C@H]7O)[C@H](O)[C@H]6O[C@@H]6O[C@@H](C)[C@H](O)[C@@H](O)[C@H]6O)C(C)(C)[C@@H]5CC[C@]43C)[C@@H]12 | – | – | > 20
C=C(C)[C@@H]1CC[C@]2(C(=O)NCc3ccco3)CC[C@]3(C)[C@H](CC[C@@H]4[C@@]5(C)CC[C@H](O[C@@H]6O[C@H](CO)[C@@H](O[C@@H]7O[C@@H](C)[C@H](O)[C@@H](O)[C@H]7O)[C@H](O)[C@H]6O[C@@H]6O[C@@H](C)[C@H](O)[C@@H](O)[C@H]6O)C(C)(C)[C@@H]5CC[C@]43C)[C@@H]12 | – | – | > 20
